A short description of series [1]: DVS (hygroscopicity) of free base and salts. In kind it is physicochemical.
Series [2] is described as follows: Oral bioavailability of the compound of structure (I) in rats with different excipients. Format: in vivo. The note with it: for bioavailability: rat, in vivo, po.
Series [3] can be described thus: Phase 1 first-in-human escalating dose study in patients with advanced solid tumors. Format: in vivo. As to the method:
The study is currently enrolling Cohort 3 at a dose level of 1080 mg qd.

A short description of series [4]: HPLC solubility in SGF, FaSSIF, FeSSIF at 37° C. Format: physicochemical. The note with it: thermodynamic from solid. As to the method:
HPLC Method. The chromatographic conditions for HPLC are summarized below.
The samples were then centrifuged and filtered. Saturated solutions were diluted with MeOH:H2O=1:2 (v:v), and the concentrations were determined by HPLC. The final pH of the saturated solutions was tested.

Each structure is given as a SMILES string. Values after ≈ are worked out from the molar mass of the structure shown. Where two headings read alike, the source gives them in different places.

Consider `CC(C)(O)C1CCC(Nc2ccc3ncc(-c4cccc(C(F)(F)F)c4)n3n2)CC1.Cl` [Hydrochloric acid salt, 2-((1R,4R)-4-((3-(3-(trifluoromethyl)phenyl)imidazo[1,2-b]pyridazin-6-yl)amino)cyclohexyl)propan-2-ol hydrochloride], for which, in series [1], the “DVS (weight gain, %)” value came out at 2.83% and the “hygroscopicity by DVS compared with methanesulfonic acid salt” value was “much lower hygroscopicity”.
Usually bioavailability stands for the share of a dose that reaches the circulation, judged against a reference dose that is usually intravenous. For orientation: solubility means the dissolved amount per volume that the medium holds. Higher therefore signals a readily soluble substance. With `CC(C)(O)[C@H]1CC[C@H](Nc2ccc3ncc(-c4cccc(C(F)(F)F)c4)n3n2)CC1` [compound of structure (I), 2-((1R,4R)-4-((3-(3-(trifluoromethyl)phenyl)imidazo[1,2-b]pyridazin-6-yl)amino)cyclohexyl)propan-2-ol], the “Oral Bioavailability (% F)” value in series [2] (Dry Powder (capsule), administered alone) is “poor bioavailability”. For the same compound, the bioavailability in series [2] (Dry Powder (capsule), administered alone, read-out: Oral Bioavailability (% F)) was 0%; in series [2] (excipient 10% EtOH/10% PEG300/20% HS15, read-out: Oral Bioavailability (% F)) it was 38%; in series [2] (excipient 10% EtOH/40% PG, read-out: Oral Bioavailability (% F)), 2%; in series [2] (excipient 10% PS-20, read-out: Oral Bioavailability (% F)) it was 39%; in series [2] (excipient 10% PS-20/50% PEG400, read-out: Oral Bioavailability (% F)) it was 15%; in series [2] (excipient Corn Oil, read-out: Oral Bioavailability (% F)), 0%. The bioavailability in series [2] (excipient HPβCD, read-out: Oral Bioavailability (% F)) stood at 11%. Besides, the “changes in hematological parameters including platelets, WBC counts and hemoglobin” value in series [3] (480 mg qd and 720 mg qd cohorts (3 patients each), first cycle, preliminary data) is on record as “no marked changes in hematological parameters”. The “side effects, regardless of causality, occurring with a frequency equal to 2 or greater” value in series [3] (480 mg qd and 720 mg qd cohorts, preliminary data) was “diarrhea, nausea and vomiting”. The “severity of the side effect events” value in series [3] (all Grade 1, except one event that was Grade 2) is listed as “mild in severity”. Further, the solubility at 0.5 h is 1360 µg/mL (≈ 3250 µM) in series [4] (simulated gastric fluid, SGF); 10.4 µg/mL (≈ 24.9 µM) in series [4] (FaSSIF); 96.8 µg/mL (≈ 231 µM) in series [4] (FeSSIF). The solubility at 2 h was 1270 µg/mL (≈ 3030 µM) in series [4] (simulated gastric fluid, SGF) and 9.81 µg/mL (≈ 23.4 µM) in series [4] (FaSSIF). In addition, the solubility at 24 h in series [4] (simulated gastric fluid, SGF) was 903 µg/mL (≈ 2160 µM); in series [4] (FaSSIF) it was 7.91 µg/mL (≈ 18.9 µM); in series [4] (FeSSIF), 91.5 µg/mL (≈ 219 µM). For the same compound, the “DVS (weight gain, %)” value in series [1] is 1.60%. In addition, the “hygroscopicity by DVS compared with methanesulfonic acid salt” value in series [1] is “much lower hygroscopicity”.
